Experimental data reported in PubChem BioAssay (NCI).
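Here, GI50 denotes the concentration required for 50% inhibition of growth. TGI denotes the concentration required for complete inhibition of growth.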

Tests used:
Test in all cases: DTP human tumour cell line panel, 384-well format
[1] = test system: A498 renal
[2] = test system: A549 NSCLC
[3] = test system: ACHN renal
[4] = test system: BT-549 breast
[5] = test system: CAKI-1 renal
[6] = test system: COLO 205 colon
[7] = test system: DU-145 prostate
[8] = test system: EKVX NSCLC
[9] = test system: HCC-2998 colon
[10] = test system: HCT-116 colon
[11] = test system: HCT-15 colon
[12] = test system: HL-60(TB) leukemia
[13] = test system: HOP-62 NSCLC
[14] = test system: HS 578T breast
[15] = test system: IGROV1 ovarian
[16] = test system: KM12 colon
[17] = test system: LOX IMVI melanoma
[18] = test system: M14 melanoma
[19] = test system: MALME-3M melanoma
[20] = test system: MCF7 breast
[21] = test system: MDA-MB-231 breast
[22] = test system: MDA-MB-435 melanoma
[23] = test system: MDA-MB-468 breast
[24] = test system: MOLT-4 leukemia
[25] = test system: NCI-H226 lung
[26] = test system: NCI-H23 lung
[27] = test system: NCI-H322M lung
[28] = test system: NCI-H460 NSCLC
[29] = test system: NCI-H522 lung
[30] = test system: NCI/ADR-RES ovarian
[31] = test system: OVCAR-3 ovarian
[32] = test system: OVCAR-4 ovarian
[33] = test system: OVCAR-5 ovarian
[34] = test system: PC-3 prostate
[35] = test system: RPMI-8226 leukemia
[36] = test system: SF-268 CNS
[37] = test system: SF-295 CNS
[38] = test system: SF-539 CNS
[39] = test system: SK-MEL-28 melanoma
[40] = test system: SK-MEL-5 melanoma
[41] = test system: SK-OV-3 ovarian
[42] = test system: SN12C renal
[43] = test system: SNB-75 CNS
[44] = test system: SR leukemia
[45] = test system: TK-10 renal
[46] = test system: U251 glioblastoma
[47] = test system: UACC-257 melanoma
[48] = test system: UACC-62 melanoma

Compound: CC(C)(C)c1cnc(CSc2cnc(NC(=O)C3CCNCC3)s2)o1
- GI50 [1]: 240 nM
- TGI [1]: 627 nM
- GI50 [2]: 101 nM
- TGI [2]: > 100000 nM
- GI50 [3]: 950 nM
- TGI [3]: 34100 nM
- GI50 [4]: 114 nM
- TGI [4]: 277 nM
- GI50 [5]: 394 nM
- TGI [5]: > 100000 nM
- GI50 [6]: 25 nM
- TGI [6]: 62.8 nM
- GI50 [7]: 42 nM
- TGI [7]: 299 nM
- GI50 [8]: 204 nM
- TGI [8]: 1070 nM
- GI50 [9]: 51.8 nM
- TGI [9]: 208 nM
- GI50 [10]: 32.3 nM
- TGI [10]: > 100000 nM
- GI50 [11]: 2450 nM
- TGI [11]: > 100000 nM
- GI50 [12]: 14.3 nM
- TGI [12]: 27.5 nM
- GI50 [13]: 66 nM
- TGI [13]: 330 nM
- GI50 [14]: 136 nM
- TGI [14]: 431 nM
- GI50 [15]: 53.1 nM
- TGI [15]: 566 nM
- GI50 [16]: 35 nM
- TGI [16]: 13700 nM
- GI50 [17]: 24.1 nM
- TGI [17]: 59.9 nM
- GI50 [18]: 166 nM
- TGI [18]: 425 nM
- GI50 [19]: 123 nM
- TGI [19]: 264 nM
- GI50 [20]: 29.8 nM
- TGI [20]: 16900 nM
- GI50 [21]: 62.4 nM
- TGI [21]: > 100000 nM
- GI50 [22]: 113 nM
- TGI [22]: 322 nM
- GI50 [23]: 50.8 nM
- TGI [23]: 176 nM
- GI50 [24]: 37.4 nM
- TGI [24]: 104 nM
- GI50 [25]: 188 nM
- TGI [25]: 680 nM
- GI50 [26]: 78.3 nM
- TGI [26]: 212 nM
- GI50 [27]: 38.1 nM
- TGI [27]: 159 nM
- GI50 [28]: 68.6 nM
- TGI [28]: 256 nM
- GI50 [29]: 147 nM
- TGI [29]: 306 nM
- GI50 [30]: 26300 nM
- TGI [30]: > 100000 nM
- GI50 [31]: 46.4 nM
- TGI [31]: 221 nM
- GI50 [32]: 63.7 nM
- TGI [32]: 368 nM
- GI50 [33]: 25.2 nM
- TGI [33]: 59.4 nM
- GI50 [34]: 70.9 nM
- TGI [34]: 397 nM
- GI50 [35]: 27.3 nM
- TGI [35]: 70.4 nM
- GI50 [36]: 41 nM
- TGI [36]: 264 nM
- GI50 [37]: 373 nM
- TGI [37]: 27100 nM
- GI50 [38]: 35.4 nM
- TGI [38]: 134 nM
- GI50 [39]: 120 nM
- TGI [39]: 285 nM
- GI50 [40]: 109 nM
- TGI [40]: 249 nM
- GI50 [41]: 192 nM
- TGI [41]: > 100000 nM
- GI50 [42]: 38.4 nM
- TGI [42]: 186 nM
- GI50 [43]: 124 nM
- TGI [43]: 278 nM
- GI50 [44]: 12.1 nM
- TGI [44]: 24.6 nM
- GI50 [45]: 232 nM
- TGI [45]: 799 nM
- GI50 [46]: 107 nM
- TGI [46]: 547 nM
- GI50 [47]: 166 nM
- TGI [47]: 350 nM
- GI50 [48]: 47.3 nM
- TGI [48]: 191 nM
